{"source": "patent US20240190872A1", "about": "“FABI INHIBITORS FOR GRAM-NEGATIVE PATHOGENS” (THE BOARD OF TRUSTEES OF THE UNIVERSITY OF ILLINOIS, priority 2021, published 2024)", "key": {"S. aureus ATCC 29213": {"tested_on": "S. aureus ATCC 29213", "assay": "Antimicrobial susceptibility test (MIC), micro-dilution broth", "assay_type": "cell-based", "conditions": "Staphylococcus aureus, ATCC29213; S. aureus ATCC 29213; read-out: MIC S. aureus 29213", "how_it_was_run": "(§1)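 CLSI micro-dilution broth method in cation-adjusted Mueller-Hinton broth, in biological triplicate; human serum (pooled, filtered) was also used.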"}, "E. coli MG1655": {"tested_on": "E. coli MG1655", "assay": "Antimicrobial susceptibility test (MIC)", "assay_type": "cell-based", "conditions": "Escherichia coli, MG1655", "how_it_was_run": "as §1"}, "K. pneumoniae BAA 2472": {"tested_on": "K. pneumoniae BAA 2472", "assay": "microbe, parasite or virus in culture", "assay_type": "cell-based", "conditions": "Klebsiella pneumoniae, BAA2472, read-out: MIC K. pneumoniae BAA 2472, clinical isolate", "how_it_was_run": "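MICs by CLSI broth microdilution in cation-adjusted Mueller-Hinton broth, performed in biological triplicate. Strains: efflux-deficient E. coli ΔtolC (JW5503, KEIO collection) and K. pneumoniae BAA-2472 (ATCC).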"}, "[1]": {"tested_on": "100 A. baumannii clinical isolates", "assay": "MIC90 against 100 A. baumannii clinical isolates", "assay_type": "cell-based", "conditions": "Acinetobacter baumannii", "experimental": "Antimicrobial susceptibility tests. Susceptibility testing was performed in biological triplicate, using the micro-dilution broth method as outlined by the Clinical and Laboratory Standards Institute. Bacteria were cultured with cation-adjusted Muller-Hinton broth (Sigma-Aldrich, Cat# 90922) in round-bottom 96-well plates (Corning, Cat# 3788). Human serum (pooled gender, 0.2 μm filtered) was purchased from BioIVT (Hicksville, NY)."}, "H. sapiens HFF-1": {"tested_on": "H. sapiens HFF-1", "assay": "In-vitro cytotoxicity", "assay_type": "cell-based"}, "H. sapiens A549": {"tested_on": "H. sapiens A549", "assay": "In-vitro cytotoxicity", "assay_type": "cell-based"}, "Plasma stability": {"assay": "Plasma stability", "assay_type": "in vitro ADME"}, "Hepatocyte stability": {"assay": "Hepatocyte stability", "assay_type": "in vitro ADME"}, "A. baumannii AR-299 [2]": {"tested_on": "A. baumannii AR-299", "assay": "Neutropenic mouse thigh infection", "assay_type": "in vivo, CD-1 mice", "conditions": "50 mg/kg, intramuscular (2, 6, and 11 h post-infection), 26 h", "experimental": "(§2) With formulation, MTD, and pharmacokinetic data in hand, the efficacy of fabimycin was evaluated in murine infection models. To start, a comparative assessment was made of fabimycin and Debio-1452-NH3 in two murine neutropenic infection models using a dosing regimen that is at the MTD for Debio-1452-NH3 but below the MTD for fabimycin (three doses, intramuscular, at 50 mg/kg).\n(§3) Chart 1. Summary of Fabimycin in vivo models."}, "A. baumannii AR-299 [3]": {"tested_on": "A. baumannii AR-299", "assay": "Acute pneumonia (lung) infection", "assay_type": "in vivo, CD-1 mice", "conditions": "50 mg/kg, intramuscular (QD), 48 h", "experimental": "as §2, §3"}, "A. baumannii AR-88": {"tested_on": "A. baumannii AR-88", "assay": "Neutropenic mouse thigh infection", "assay_type": "in vivo, female BALB/c mice", "experimental": "FIG. 7. […] A) Neutropenic mouse thigh infection model initiated in female BALB/c mice with A. baumannii AR-88 (1.36×10^5 CFU per mouse intramuscular, left thigh) were treated with vehicle (5 mice) or fabimycin (10 mice) four times a day (75 mg/kg intravenously) and bacterial burden evaluated at 26 h post-infection. B) Neutropenic mouse thigh infection initiated in CD-1 mice with S. aureus USA300 LAC (2.3×10^6 CFU per mouse intramuscular in thigh) were treated with vehicle (8 mice) or FabI inhibitor (8 mice per group) 2 and 7 h post-infection (5 mg/kg retro-orbital IV), and the bacterial burden was evaluated 24 h post-infection.\nas §2, §3"}, "in vitro [4]": {"assay": "in vitro", "conditions": "human, plasma"}, "in vitro [5]": {"assay": "in vitro", "conditions": "dog"}, "HERG": {"molecular_target": "HERG (Homo sapiens (Human), UniProt Q12809)", "sequence (Q12809 whole entry)": "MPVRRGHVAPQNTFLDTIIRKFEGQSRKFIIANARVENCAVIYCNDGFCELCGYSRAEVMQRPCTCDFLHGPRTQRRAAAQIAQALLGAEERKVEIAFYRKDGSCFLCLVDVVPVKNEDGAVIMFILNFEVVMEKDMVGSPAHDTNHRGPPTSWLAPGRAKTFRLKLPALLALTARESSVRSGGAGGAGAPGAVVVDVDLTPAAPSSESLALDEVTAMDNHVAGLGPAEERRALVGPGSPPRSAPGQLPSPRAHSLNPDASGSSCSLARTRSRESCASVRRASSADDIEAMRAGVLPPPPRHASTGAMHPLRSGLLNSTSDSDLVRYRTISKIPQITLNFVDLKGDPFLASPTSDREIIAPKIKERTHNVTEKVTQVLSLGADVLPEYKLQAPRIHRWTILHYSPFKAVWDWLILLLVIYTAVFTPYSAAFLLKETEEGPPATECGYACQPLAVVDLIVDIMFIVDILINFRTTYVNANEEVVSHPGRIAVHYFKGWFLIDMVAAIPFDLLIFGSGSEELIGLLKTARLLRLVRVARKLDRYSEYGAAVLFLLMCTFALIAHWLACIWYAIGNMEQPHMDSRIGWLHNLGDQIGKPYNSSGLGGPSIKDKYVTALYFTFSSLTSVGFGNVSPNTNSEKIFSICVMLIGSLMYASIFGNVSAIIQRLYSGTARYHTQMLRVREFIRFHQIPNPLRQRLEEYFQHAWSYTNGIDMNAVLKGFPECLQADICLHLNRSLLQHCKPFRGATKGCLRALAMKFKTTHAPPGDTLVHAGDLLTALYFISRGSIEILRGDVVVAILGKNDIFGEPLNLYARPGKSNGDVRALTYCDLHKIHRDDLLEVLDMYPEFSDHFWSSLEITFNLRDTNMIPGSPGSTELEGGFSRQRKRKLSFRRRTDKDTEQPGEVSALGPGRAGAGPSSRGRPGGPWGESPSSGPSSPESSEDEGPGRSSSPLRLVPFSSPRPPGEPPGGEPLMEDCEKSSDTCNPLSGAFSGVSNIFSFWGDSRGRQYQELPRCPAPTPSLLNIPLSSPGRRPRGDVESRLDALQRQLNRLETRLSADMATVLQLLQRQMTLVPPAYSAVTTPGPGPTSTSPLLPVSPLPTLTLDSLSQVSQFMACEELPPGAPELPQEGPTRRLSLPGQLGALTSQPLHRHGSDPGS", "assay": "cell-based"}, "CYP 2C9": {"molecular_target": "CYP 2C9 (Homo sapiens (Human), UniProt P11712)", "sequence (P11712 whole entry)": "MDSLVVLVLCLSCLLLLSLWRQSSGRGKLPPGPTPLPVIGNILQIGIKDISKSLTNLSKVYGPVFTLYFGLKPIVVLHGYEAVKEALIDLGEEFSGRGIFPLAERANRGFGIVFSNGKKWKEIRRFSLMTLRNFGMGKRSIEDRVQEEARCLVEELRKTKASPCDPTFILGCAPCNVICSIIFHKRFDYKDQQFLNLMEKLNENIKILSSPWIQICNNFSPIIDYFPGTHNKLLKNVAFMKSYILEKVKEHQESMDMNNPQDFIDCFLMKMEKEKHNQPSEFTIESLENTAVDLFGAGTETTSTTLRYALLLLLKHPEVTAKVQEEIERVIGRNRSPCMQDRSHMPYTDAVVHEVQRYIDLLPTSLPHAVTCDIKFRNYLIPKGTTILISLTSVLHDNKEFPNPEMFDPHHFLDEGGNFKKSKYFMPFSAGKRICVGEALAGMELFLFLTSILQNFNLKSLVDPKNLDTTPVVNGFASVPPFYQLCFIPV", "assay": "biochemical"}, "CYP 3A4": {"molecular_target": "CYP 3A4 (Homo sapiens (Human), UniProt P08684)", "sequence (P08684 whole entry)": "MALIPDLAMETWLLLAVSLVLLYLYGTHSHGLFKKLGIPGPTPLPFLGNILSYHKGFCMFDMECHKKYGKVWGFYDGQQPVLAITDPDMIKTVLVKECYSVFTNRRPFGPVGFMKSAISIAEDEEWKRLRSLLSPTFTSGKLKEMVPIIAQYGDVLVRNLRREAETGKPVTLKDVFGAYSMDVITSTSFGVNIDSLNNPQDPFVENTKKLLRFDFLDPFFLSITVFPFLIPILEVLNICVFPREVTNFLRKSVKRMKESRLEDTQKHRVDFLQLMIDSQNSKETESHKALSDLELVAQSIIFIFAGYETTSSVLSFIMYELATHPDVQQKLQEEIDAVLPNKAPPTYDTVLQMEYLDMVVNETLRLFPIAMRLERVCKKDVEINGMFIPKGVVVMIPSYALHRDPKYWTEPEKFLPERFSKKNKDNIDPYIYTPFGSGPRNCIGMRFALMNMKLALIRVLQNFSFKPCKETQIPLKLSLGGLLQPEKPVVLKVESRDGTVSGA", "assay": "biochemical"}, "CYP 1A2": {"molecular_target": "CYP 1A2 (Homo sapiens (Human), UniProt P05177)", "sequence (P05177 whole entry)": "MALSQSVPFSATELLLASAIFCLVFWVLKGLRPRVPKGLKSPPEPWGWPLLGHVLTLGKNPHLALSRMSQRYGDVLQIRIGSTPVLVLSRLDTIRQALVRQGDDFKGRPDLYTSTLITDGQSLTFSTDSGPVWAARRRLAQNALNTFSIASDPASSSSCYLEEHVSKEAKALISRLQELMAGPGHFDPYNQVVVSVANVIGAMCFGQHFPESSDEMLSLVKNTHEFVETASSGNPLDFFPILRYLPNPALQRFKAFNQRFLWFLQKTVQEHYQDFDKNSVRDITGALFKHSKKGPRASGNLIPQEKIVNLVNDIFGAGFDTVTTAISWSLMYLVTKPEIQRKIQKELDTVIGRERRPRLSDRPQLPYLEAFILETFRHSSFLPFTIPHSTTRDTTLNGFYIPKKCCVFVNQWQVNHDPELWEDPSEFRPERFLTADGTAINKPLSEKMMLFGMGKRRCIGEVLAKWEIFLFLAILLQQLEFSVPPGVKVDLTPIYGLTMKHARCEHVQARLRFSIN", "assay": "CYP inhibition"}}, "data": [{"compound": "Cc1c(CN(C)C(=O)/C=C/c2cnc3c(c2)CC[C@H](N)C(=O)N3)oc2ccccc12", "note": "[(S)-11, (S,E)-3-(7-amino-8-oxo-6,7,8,9-tetrahydro-5H-pyrido[2,3-b]azepin-3-yl)-N-methyl-N-((3-methylbenzofuran-2-yl)methyl)acrylamide]", "values": [{"measurement": "MIC", "setting": "S. aureus ATCC 29213", "result": 0.004, "unit": "mg/L"}, {"measurement": "MIC", "setting": "E. coli MG1655", "result": 2, "unit": "mg/L"}, {"measurement": "MIC", "setting": "K. pneumoniae BAA 2472", "result": 4, "unit": "mg/L"}, {"measurement": "MIC90", "setting": "[1]", "result": 8, "unit": "mg/L"}, {"measurement": "inhibition at 30 µM", "setting": "H. sapiens HFF-1", "result": "9.5 ± 3.4", "unit": "%"}, {"measurement": "IC50", "setting": "H. sapiens HFF-1; cytotoxicity", "result": "112 ± 11", "unit": "µM"}, {"measurement": "inhibition at 30 µM", "setting": "H. sapiens A549", "result": "-1.2 ± 3.5", "unit": "%"}, {"measurement": "IC50", "setting": "H. sapiens A549; cytotoxicity", "result": "114 ± 3", "unit": "µM"}, {"measurement": "stability in rat plasma (in words)", "setting": "Plasma stability", "result": "excellent stability"}, {"measurement": "Hepatocyte stability, Rat", "setting": "Hepatocyte stability", "result": 0.9, "unit": "μL/min/million cells"}, {"measurement": "log reduction relative to the vehicle", "setting": "A. baumannii AR-299 [2]", "result": 2.3, "unit": "log"}, {"measurement": "log reduction relative to the vehicle", "setting": "A. baumannii AR-299 [3]", "result": 3.9, "unit": "log"}, {"measurement": "log reduction relative to the vehicle", "setting": "A. baumannii AR-88; 75 mg/kg IV, QID, 26 h", "result": 1.75, "unit": "log"}, {"measurement": "reduction of bacterial burden", "setting": "A. baumannii AR-88; NDM-1 containing A. baumannii, neutropenic thigh", "result": "~2 log(CFU/thigh)"}, {"measurement": "half-life", "setting": "in vitro [4]", "result": 23.3, "unit": "h"}, {"measurement": "efflux ratio", "setting": "in vitro [5]; MDCK-MDR1", "result": 9.4}, {"measurement": "Papp", "setting": "in vitro [5]; MDCK-MDR1, MDR1-MDCK Permeability Papp A:B", "result": 6, "unit": "nm/s"}, {"measurement": "Papp", "setting": "in vitro [5]; MDCK-MDR1, MDR1-MDCK Permeability Papp B:A", "result": 57, "unit": "nm/s"}, {"measurement": "IC50", "setting": "HERG", "result": 21.8, "unit": "µM"}, {"measurement": "IC50", "setting": "CYP 2C9", "result": 27, "unit": "µM"}, {"measurement": "IC50", "setting": "CYP 3A4", "result": 7, "unit": "µM"}, {"measurement": "IC50", "setting": "CYP 1A2", "result": 31, "unit": "µM"}, {"measurement": "Plasma protein binding, Human", "setting": "Plasma protein binding; Human", "result": 94, "unit": "%"}, {"measurement": "fraction unbound", "setting": "Plasma protein binding; human, plasma", "result": 0.06}]}]}
